# Data as given in the OligoGym collection.
# Values joined by “and” are separate entries in the source; they are usually repeats but may differ in a detail not shown here. Identical values can stand only once. After the bases stand the sugars from the 5' end (letter, count) and the backbone: PS all phosphorothioate, else s phosphorothioate and o phosphodiester by linkage. Methylation of C is not given here. e = 2'-O-(2-methoxyethyl) (MOE); k = constrained ethyl (cEt); d = 2'-deoxy (DNA)
# Biological target: IRF4
# Conditions: ASO
Sequence,"target mRNA inhibition (SK-MEL-28, 4 µM) [%]",other results
"GCATTTTCCAGAAAAT (sugars k3 d10 k3, PS)",64,"target mRNA inhibition (SK-MEL-28, 0.185 µM): 13%; target mRNA inhibition (SK-MEL-28, 5 µM): 74%; target mRNA inhibition (SK-MEL-28, 15 µM): 89%"
"GCCAAGACCAGCTCTT (sugars k3 d10 k3, PS)",30,–
"GCCAAGAGGTGCGAGT (sugars k3 d10 k3, PS)",35,–
"GCCAAGTAATTTTAAG (sugars k3 d10 k3, PS)",35,–
"GCCAATTCCACTTTAT (sugars k3 d10 k3, PS)",64,–
"GCCACAACTCTCGCCT (sugars k3 d10 k3, PS)",25,–
"GCCATTCGAGGTGATT (sugars k3 d10 k3, PS)",56,–
"GCCATTGTCCTCTGGG (sugars k3 d10 k3, PS)",25,–
"GCCCACATAATCCAGT (sugars k3 d10 k3, PS)",22,–
"GCCCGGAGGAAGGGCG (sugars k3 d10 k3, PS)",-6,–
"GCCGATCATCAACTTC (sugars k3 d10 k3, PS)",–,"target mRNA inhibition (MM.1R, 1 µM): 26%"
"GCCGCTGTCGATCTGG (sugars k3 d10 k3, PS)",24,–
"GCCTTAATGGTGATTT (sugars k3 d10 k3, PS)",26,–
"GCCTTCAGCGGTTTCC (sugars k3 d10 k3, PS)",–,"target mRNA inhibition (MM.1R, 1 µM): 4%"
"GCGAAGGCTCCTACCC (sugars k3 d10 k3, PS)",-15,–
"GCGACTAACTCTCCTG (sugars k3 d10 k3, PS)",70,–
"GCGAGTTGGCACAATT (sugars k3 d10 k3, PS)",–,"target mRNA inhibition (MM.1R, 1 µM): 27% and 37%"
"GCGGACACGCCCGACC (sugars k3 d10 k3, PS)",15,–
"GCGGAGCTTCCCGTTG (sugars k3 d10 k3, PS)",33,–
"GCTAACTTACAGGACT (sugars k3 d10 k3, PS)",–,"target mRNA inhibition (MM.1R, 1 µM): -8%"
"GCTACATTTCTTATGC (sugars k3 d10 k3, PS)",20,–
"GCTAGATTCTCCCTGC (sugars k3 d10 k3, PS)",–,"target mRNA inhibition (MM.1R, 1 µM): -13%"
"GCTAGCAGGAGCGAGA (sugars k3 d10 k3, PS)",–,"target mRNA inhibition (MM.1R, 1 µM): -5%"
"GCTCAACCAGTTCCTC (sugars k3 d10 k3, PS)",38,–
"GCTCACAGATTAATAG (sugars k3 d10 k3, PS)",16,–
"GCTCACTATTAAACAG (sugars k3 d10 k3, PS)",-12,–
"GCTCACTGCTCACTAA (sugars k3 d10 k3, PS)",33,–

Sequence,"target mRNA inhibition (SK-MEL-28, 4 µM) [%]",other results
"GCTCATGCCGAACTCT (sugars k3 d10 k3, PS)",19,–
"GCTCATGGACATCTGC (sugars k3 d10 k3, PS)",39,–
"GCTCCTGAGACAGACT (sugars k3 d10 k3, PS)",56,–
"GCTGCTCATTTCACTG (sugars k3 d10 k3, PS)",41,–
"GCTGTGTGTCAAAGAG (sugars k4 d8 k4, PS)",40,–
"GCTTATCAATGCCAAG (sugars k3 d10 k3, PS)",40,–
"GCTTCTTCAATTTACA (sugars k3 d10 k3, PS)",45,–
"GCTTTTTCAAACACTA (sugars k3 d10 k3, PS)",68,–
"GGAAACGAGAACGCAC (sugars k3 d10 k3, PS)",30,–
"GGAACTCATAGGTGTA (sugars k3 d10 k3, PS)",–,"target mRNA inhibition (MM.1R, 0.0625 µM): 11% and 32%; target mRNA inhibition (MM.1R, 0.25 µM): 26% and 42%; target mRNA inhibition (MM.1R, 1 µM): 53% and 65%; target mRNA inhibition (MM.1R, 4 µM): 75% and 80%"
"GGAAGTTTACACTGGA (sugars k2 d9 e3 k2, PS)",–,"target mRNA inhibition (MM.1R, 1 µM): 47%"
"GGAAGTTTACACTGGA (sugars kdddddddddkekeke, PS)",–,"target mRNA inhibition (MM.1R, 1 µM): 32%"
"GGAAGTTTACACTGGA (sugars kkddddddddddkeke, PS)",–,"target mRNA inhibition (MM.1R, 1 µM): 46%"
"GGAATCTTGGCAGGGA (sugars k3 d10 k3, PS)",48,–
"GGACATATTTGCTTTG (sugars k3 d10 k3, PS)",32,–
"GGAGAGGCTGAGATAA (sugars k3 d10 k3, PS)",29,–
"GGAGAGGGCGACGACA (sugars k3 d10 k3, PS)",–,"target mRNA inhibition (MM.1R, 1 µM): -1%"
"GGAGATATTAATTACT (sugars k3 d10 k3, PS)",50,–
"GGAGATCCTTTTTATT (sugars k3 d10 k3, PS)",32,–
"GGAGGAGGGTTGGCCT (sugars k3 d10 k3, PS)",1,–
"GGAGTAATAGTAAATA (sugars k3 d10 k3, PS)",36,–
"GGATAACCTGAACATG (sugars k3 d10 k3, PS)",–,"target mRNA inhibition (MM.1R, 1 µM): 9%"
"GGATGGAACAGTAACT (sugars k3 d10 k3, PS)",52,–
"GGATTCCGCGCGCAGA (sugars k3 d10 k3, PS)",–,"target mRNA inhibition (MM.1R, 1 µM): 21%"
"GGATTCTATAAATAGA (sugars k3 d10 k3, PS)",25,–
"GGCAAATTAATGCTTC (sugars k3 d10 k3, PS)",76,"target mRNA inhibition (MM.1R, 0.0625 µM): -5% and 17%; target mRNA inhibition (MM.1R, 0.074 µM): -9%; target mRNA inhibition (MM.1R, 0.222 µM): -33%; target mRNA inhibition (MM.1R, 0.25 µM): -11% and 5%; target mRNA inhibition (MM.1R, 0.666 µM): 7%; target mRNA inhibition (MM.1R, 2 µM): -5%"
"GGCAACCTGCATTTGC (sugars k4 d8 k4, PS)",-12,–

Sequence,"target mRNA inhibition (SK-MEL-28, 4 µM) [%]",other results
"GGCAAGATGAGAATTC (sugars k3 d10 k3, PS)",25,–
"GGCAAGTTTTCTCTGT (sugars k3 d10 k3, PS)",36,–
"GGCACATCAATGTTTT (sugars k2 d9 e3 k2, PS)",–,"target mRNA inhibition (MM.1R, 1 µM): 22% and 36%"
"GGCACATCAATGTTTT (sugars kddddddddddkekek, PS)",–,"target mRNA inhibition (MM.1R, 1 µM): 28% and 25%"
"GGCACATCAATGTTTT (sugars kkddddddddddkeke, PS)",–,"target mRNA inhibition (MM.1R, 1 µM): 9%"
"GGCACGGCTTCAGTCA (sugars k3 d10 k3, PS)",75,–
"GGCCAACGACTCCACA (sugars k3 d10 k3, PS)",23,–
"GGCCAATGATTTTGTT (sugars k3 d10 k3, PS)",6,–
"GGCCACCGCACGCAAG (sugars k3 d10 k3, PS)",–,"target mRNA inhibition (MM.1R, 1 µM): -24%"
"GGCCATCCAGAGGACC (sugars k3 d10 k3, PS)",25,–
"GGCCCCAGCCAAGAAG (sugars k3 d10 k3, PS)",8,–
"GGCCGATCATCAACTT (sugars k3 d10 k3, PS)",7,–
"GGCCTGAGTTACCGCA (sugars k3 d10 k3, PS)",–,"target mRNA inhibition (MM.1R, 1 µM): 8%"
"GGCCTTCCTGGCGGAG (sugars k3 d10 k3, PS)",22,–
"GGCGACCCCGTCGCAG (sugars k3 d10 k3, PS)",30,–
"GGCGACTAACTCTCCT (sugars k3 d10 k3, PS)",63,–
"GGCGACTGCTGAAAAC (sugars k3 d10 k3, PS)",–,"target mRNA inhibition (MM.1R, 1 µM): -10%"
"GGCGCGGACGCACGGA (sugars k3 d10 k3, PS)",–,"target mRNA inhibition (MM.1R, 1 µM): 10%"
"GGCTAGGCCACCGCAC (sugars k3 d10 k3, PS)",28,–
"GGCTCCGCTCAACCAG (sugars k3 d10 k3, PS)",–,"target mRNA inhibition (MM.1R, 1 µM): 9%"
"GGCTGAGATAGGAAGC (sugars k3 d10 k3, PS)",36,–
"GGGAACAGATAGTTAA (sugars k3 d10 k3, PS)",26,–
"GGGAAGTGGACCCCAT (sugars k3 d10 k3, PS)",9,–
"GGGACCCACGGACGGA (sugars k3 d10 k3, PS)",9,–
"GGGAGATCCGGCAGCC (sugars k3 d10 k3, PS)",-10,–
"GGGATTATATACTGGT (sugars kkdddddddddkekek, PS)",–,"target mRNA inhibition (MM.1R, 1 µM): 40%"
"GGGCAACAGTTCAAGT (sugars k3 d10 k3, PS)",36,–

Sequence,"target mRNA inhibition (SK-MEL-28, 4 µM) [%]",other results
"GGGCAAGATGAGAATT (sugars k3 d10 k3, PS)",0,–
"GGGCAATGGAGTCTCG (sugars k3 d10 k3, PS)",24,–
"GGGCAGTCAATTGGAC (sugars k3 d10 k3, PS)",25,–
"GGGCATCCTCAGTTAC (sugars k3 d10 k3, PS)",33,–
"GGGCATGTAAAACATA (sugars k3 d10 k3, PS)",23,–
"GGGCCCGTCCCAGTAG (sugars k3 d10 k3, PS)",20,–
"GGGCGACGACAGCTGC (sugars k3 d10 k3, PS)",32,–
"GGGTAAAGGAGTGCAG (sugars k3 d10 k3, PS)",19,–
"GGGTCCTACCTGCTGG (sugars k3 d10 k3, PS)",36,–
"GGGTTAAAGATGTTAC (sugars k3 d10 k3, PS)",50,–
"GGGTTAAAGGAGTGCA (sugars k3 d10 k3, PS)",–,"target mRNA inhibition (MM.1R, 1 µM): 0%"
"GGGTTACGCTTATTTT (sugars k3 d10 k3, PS)",65,–
"GGTAATTTAGGCCAAT (sugars k3 d10 k3, PS)",35,–
"GGTACATGGCAGTGGA (sugars k3 d10 k3, PS)",87,–
"GGTATACTTAAGCAAG (sugars k3 d10 k3, PS)",68,–
"GGTATTTATAACCGGT (sugars k3 d10 k3, PS)",–,"target mRNA inhibition (MM.1R, 1 µM): 10%"
"GGTATTTTTCCGTTCC (sugars k3 d10 k3, PS)",–,"target mRNA inhibition (MM.1R, 1 µM): 30%"
"GGTGAGCACCGCGCCG (sugars k3 d10 k3, PS)",-8,–
"GGTGTAACTTTTACCT (sugars k3 d10 k3, PS)",11,–
"GGTTAAATATTCTTCA (sugars k3 d10 k3, PS)",48,–
"GGTTACTAATTCCATA (sugars k3 d10 k3, PS)",56,–
"GGTTGGCTGGTCTTTG (sugars kddddddddddkekek, PS)",–,"target mRNA inhibition (MM.1R, 1 µM): 47%"
"GGTTGGCTGGTCTTTG (sugars kdddddddddkekeke, PS)",–,"target mRNA inhibition (MM.1R, 1 µM): 26%"
"GGTTGGCTGGTCTTTG (sugars kkdddddddddkdkdk, PS)",–,"target mRNA inhibition (MM.1R, 1 µM): 64%"
